From patent publication EP0287819A1, “5-(phenyl or phenoxyalkyl)-3-(2-furanyl or 2-thienyl)-3-(1H-imidazol-1-ylmethyl)-2-methylisoxazolidines” (FISONS CORPORATION, priority 1987, dated 1988)
Values after ≈ are worked out from the molar mass of the structure shown.

Tests used:
Test in all cases: in vitro antifungal activity, broth and agar testing techniques
Type in all cases: cell-based
Epidermophyton floccosum = test system: Epidermophyton floccosum
From the text: (§1) The compounds of this invention are useful as antifungal agents.

[1] = test system: Trichophyton schoenleinii
From the text: as §1

Trichophyton tonsurans = test system: Trichophyton tonsurans
From the text: as §1

Candida albicans = conditions: for inhibitory activity: in vitro; for MIC: one range stated jointly for Examples 5, 6 and 10 and the three fungi, read-out: minimum inhibitory concentration MIC
From the text: as §1

[2] = test system: Trichophyton mentagrophytes
From the text: as §1

Aspergilius fumigatus = conditions: for activity: in vitro; for MIC: one range stated jointly for Examples 5, 6 and 10 and the three fungi, read-out: minimum inhibitory concentration MIC
From the text: as §1

Trichophyton rubrum = conditions: for activity: in vitro; for MIC: one range stated jointly for Examples 5, 6 and 10 and the three fungi, read-out: minimum inhibitory concentration MIC
From the text: as §1

MIC (Aspergilius fumigatus)	MIC (Candida albicans)	MIC (Trichophyton rubrum)	SMILES	inhibitory activity (Epidermophyton floccosum)	inhibitory activity [1]	inhibitory activity (Trichophyton tonsurans)	inhibitory activity (Candida albicans)	inhibitory activity [2]	activity (Aspergilius fumigatus)	activity (Trichophyton rubrum)
–	–	–	CN1OC(c2ccc(Cl)cc2)CC1(Cn1ccnc1)c1ccco1 (single isomer, unassigned) [Example 1, 5-(4-Chlorophenyl)-3-(2-furanyl)-3-(1H-imidazol-1-ylmethyl) -2-methylisoxazolidine]	good to moderate	good to moderate	good to moderate	good to moderate	good to moderate	–	–
–	–	–	CN1OC(COc2ccc(Cl)cc2)CC1(Cn1ccnc1)c1ccco1 (single isomer, unassigned) [Example 3, 5-(4-Chlorophenoxymethyl)-3-(2-furanyl)-3-(1H-imidazol-1-ylmethyl)-2-methylisoxazolidine]	good to moderate	good to moderate	good to moderate	good to moderate	good to moderate	–	–
0.2 to 70 µg/mL (≈ 0.615 to 215 µM)	0.2 to 70 µg/mL (≈ 0.615 to 215 µM)	0.2 to 70 µg/mL (≈ 0.615 to 215 µM)	CN1OC(c2ccccc2)CC1(Cn1ccnc1)c1cccs1 (single isomer, unassigned) [Example 5, 3-(1H-Imidazol-1-ylmethyl)-2-methyl-5-phenyl-3-(2-thienyl)isoxazolidine]	–	–	–	good to moderate	–	good to moderate	good to moderate
0.2 to 70 µg/mL (≈ 0.556 to 195 µM)	0.2 to 70 µg/mL (≈ 0.556 to 195 µM)	0.2 to 70 µg/mL (≈ 0.556 to 195 µM)	CN1OC(c2ccc(Cl)cc2)CC1(Cn1ccnc1)c1cccs1 (single isomer, unassigned) [Example 6, 5-(4-Chlorophenyl)-3-(1H-imidazol-1-ylmethyl)-2-methyl-3-(2-thienyl)isoxazolidine]	–	–	–	good to moderate	–	good to moderate	good to moderate
0.2 to 70 µg/mL (≈ 0.519 to 182 µM)	0.2 to 70 µg/mL (≈ 0.519 to 182 µM)	0.2 to 70 µg/mL (≈ 0.519 to 182 µM)	Cc1ccc(SCC2CC(Cn3ccnc3)(c3cccs3)N(C)O2)cc1 (single isomer, unassigned) [Example 10, 3-(1H-Imidazol-1-ylmethyl)-2-methyl-5-[[(4-methylphenyl)thio]methyl]-3-(2-thienyl)isoxazolidine]	–	–	–	good to moderate	–	good to moderate	good to moderate
